Measurements from PMC10206600, “Two Distinct Thermodynamic Gradients for Cellular Metalation of Vitamin B12” (JACS Au, 2023).

Biological target: T1, CobNST (Rhodobacter capsulatus, UniProt D5AV09)
T1 construct: gene cobN; recombinant from E. coli BL21(DE3) pLysS; N-terminal 6xHis-tag and thrombin site on CobN (pET14b) and CobS (pET3a), CobT untagged, CobST copurified; 13 subunits; with Aerobic cobaltochelatase subunit CobS; Aerobic cobaltochelatase subunit CobT
T1 sequence (D5AV09 1-1085): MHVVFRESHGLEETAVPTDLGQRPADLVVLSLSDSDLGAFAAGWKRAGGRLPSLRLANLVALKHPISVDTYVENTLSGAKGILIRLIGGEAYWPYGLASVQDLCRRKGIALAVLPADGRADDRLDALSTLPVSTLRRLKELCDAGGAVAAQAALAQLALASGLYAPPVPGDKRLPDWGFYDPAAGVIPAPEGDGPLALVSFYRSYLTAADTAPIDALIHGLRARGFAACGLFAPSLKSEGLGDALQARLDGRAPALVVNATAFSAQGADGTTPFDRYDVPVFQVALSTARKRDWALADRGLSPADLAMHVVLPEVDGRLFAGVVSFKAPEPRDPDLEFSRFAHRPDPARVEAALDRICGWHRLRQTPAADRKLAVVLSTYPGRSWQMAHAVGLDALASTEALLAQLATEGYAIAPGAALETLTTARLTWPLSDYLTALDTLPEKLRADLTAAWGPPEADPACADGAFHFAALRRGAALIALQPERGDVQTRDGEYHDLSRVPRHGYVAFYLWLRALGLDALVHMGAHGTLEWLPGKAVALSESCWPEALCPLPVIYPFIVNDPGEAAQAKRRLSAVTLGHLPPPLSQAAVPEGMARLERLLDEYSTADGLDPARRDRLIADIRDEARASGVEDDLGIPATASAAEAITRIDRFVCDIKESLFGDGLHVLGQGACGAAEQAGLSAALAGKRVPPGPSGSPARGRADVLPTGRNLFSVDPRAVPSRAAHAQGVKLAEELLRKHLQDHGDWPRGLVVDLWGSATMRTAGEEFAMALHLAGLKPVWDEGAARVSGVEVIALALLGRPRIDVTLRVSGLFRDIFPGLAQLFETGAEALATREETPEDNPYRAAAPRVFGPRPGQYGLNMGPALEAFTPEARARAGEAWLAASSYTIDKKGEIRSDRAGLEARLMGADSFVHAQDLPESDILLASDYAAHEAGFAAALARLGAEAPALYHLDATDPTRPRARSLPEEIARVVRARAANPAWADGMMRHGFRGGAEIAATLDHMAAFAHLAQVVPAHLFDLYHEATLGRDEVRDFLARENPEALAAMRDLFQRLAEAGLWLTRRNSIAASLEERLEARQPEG
T1 sequence (D5AQ14 1-324 partner): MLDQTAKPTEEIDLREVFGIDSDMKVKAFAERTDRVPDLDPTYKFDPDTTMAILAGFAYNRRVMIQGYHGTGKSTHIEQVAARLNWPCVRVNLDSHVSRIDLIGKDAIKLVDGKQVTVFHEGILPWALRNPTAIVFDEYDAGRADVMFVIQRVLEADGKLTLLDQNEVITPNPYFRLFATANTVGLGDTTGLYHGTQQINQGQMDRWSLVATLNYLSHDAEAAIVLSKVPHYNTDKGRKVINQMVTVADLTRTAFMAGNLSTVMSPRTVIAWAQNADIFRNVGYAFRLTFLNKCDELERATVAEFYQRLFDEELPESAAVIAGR
T1 sequence (D5AQ13 1-624 partner): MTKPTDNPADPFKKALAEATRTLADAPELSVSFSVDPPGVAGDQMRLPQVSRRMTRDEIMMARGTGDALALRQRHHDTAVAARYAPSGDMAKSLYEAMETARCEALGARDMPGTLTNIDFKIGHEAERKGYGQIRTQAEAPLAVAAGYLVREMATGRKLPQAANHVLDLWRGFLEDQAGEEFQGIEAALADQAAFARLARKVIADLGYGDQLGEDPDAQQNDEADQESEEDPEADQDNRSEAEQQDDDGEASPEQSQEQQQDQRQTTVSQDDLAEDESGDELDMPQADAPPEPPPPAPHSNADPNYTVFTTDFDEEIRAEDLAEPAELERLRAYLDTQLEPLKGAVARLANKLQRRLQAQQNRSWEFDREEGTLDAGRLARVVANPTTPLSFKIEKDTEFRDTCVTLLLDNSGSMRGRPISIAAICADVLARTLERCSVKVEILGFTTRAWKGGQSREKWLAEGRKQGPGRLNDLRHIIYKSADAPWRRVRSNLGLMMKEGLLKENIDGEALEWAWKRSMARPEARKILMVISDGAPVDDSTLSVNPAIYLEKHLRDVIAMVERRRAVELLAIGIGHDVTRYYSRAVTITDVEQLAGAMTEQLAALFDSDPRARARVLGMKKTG
Assay: UV-visible absorbance at […] nm, Co(II) chelation
Format: biochemical
Conditions: 10 uM HBAD, 100 uM total Co(II), 10 mM MgCl2, 5 mM ATP, 50 mM Hepes pH 7.0, 100 mM NaCl, 20-25 C, anaerobic

C/C1=C2N=C(/C=C3\N/C(=C(/C)C4=N[C@@](C)([C@@H]5N=C1[C@](C)(CCC(=O)O)[C@H]5CC(=O)O)[C@@](C)(CC(N)=O)[C@@H]4CCC(=O)O)[C@@](C)(CC(N)=O)[C@@H]3CCC(=O)O)C(C)(C)[C@@H]/2CCC(=O)O [HBAD, hydrogenobyrinic acid a,c-diamide]
UV-visible absorbance at 330 nm, Co(II) chelation: Metalation of HBAD to form cobyrinic acid a,c-diamide (CBAD) was followed by changes in the UV–visible absorbance
